Assay [1] addresses T1, human VEGF-R2 receptor (KDR) (Homo sapiens, UniProt P35968).
T1 construct: expressed in transfected cells; host or cells: CHO cells
In words: VEGF-induced KDR autophosphorylation in transfected CHO cells, sandwich ELISA. It counts as cell-based. To be noted: Table 5; read-out: KDR, IC50 class. As to the method:
(§1) The compounds to be tested are then diluted in culture medium (without FCS, with 0.1% bovine serum albumin) and added to the cells. (Controls comprise medium without test compounds). After two hours' incubation at 37° C., recombinant VEGF is added; the final VEGF concentration is 20 ng/ml). After a further five minutes incubation at 37° C., the cells are washed twice with ice-cold PBS (phosphate-buffered saline) and immediately lysed in 100 μl lysis buffer per well. The lysates are then centrifuged to remove the cell nuclei, and the protein concentrations of the supernatants are determined using a commercial protein assay (BIORAD). The lysates can then either be immediately used or, if necessary, stored at −20° C. A sandwich ELISA is carried out to measure the VEGF-R2 phosphorylation: a monoclonal antibody to VEGF-R2 (for example Mab 1495.12.14; ProQinase, Freiburg, Germany) is immobilized on black ELISA plates (OptiPlate™ HTRF-96 from Packard). The plates are then washed and the remaining free protein-binding sites are saturated with 3% TopBlock® (Juro, Cat. # TB232010) in phosphate buffered saline with Tween 20® (polyoxyethylen(20)-sorbitane monolaurate, ICI/Uniquema) (PBST). The cell lysates (20 μg protein per well) are then incubated in these plates overnight at 4° C. together with an antiphosphotyrosine antibody coupled with alkaline phosphatase (PY20:AP from Zymed). […] The luminescence is measured in a Packard Top Count Microplate Scintillation Counter. The difference between the signal of the positive control (stimulated with VEGF) and that of the negative control (not stimulated with VEGF) corresponds to VEGF-induced VEGF-R2 phosphorylation (=100%). The activity of the tested substances is calculated as percent inhibition of VEGF-induced VEGF-R2 phosphorylation, wherein the concentration of substance that induces half the maximum inhibition is defined as the IC50 (inhibitory dose for 50% inhibition). […] Flt3 kinase inhibition is determined as follows: The baculovirus donor vector pFbacG01 (GIBCO) is used to generate a recombinant baculovirus expressing the amino acid region amino acids 563-993 of the cytoplasmic kinase domain of human Flt-3. The coding sequence for the cytoplasmic domain of Flt-3 is amplified by PCR from human c-DNA libraries (Clontech). The amplified DNA fragments and the pFbacG01 vector are made compatible for ligation by digestion with BamH1 and HindIII. Ligation of these DNA fragments results in the baculovirus donor plasmid Flt-3(1.1). The production of the viruses, the expression of proteins in Sf9 cells and the purification of the GST-fused proteins are performed as follows: Production of virus: Transfer vector (pFbacG01-Flt-3) containing the Flt-3 kinase domain is transfected into the DH10Bac cell line (GIBCO) and the transfected cells are plated on selective agar plates. Colonies without insertion of the fusion sequence into the viral genome (carried by the bacteria) are blue. Single white colonies are picked and viral DNA (bacmid) is isolated from the bacteria by standard plasmid purification procedures. Sf9 or Sf21 cells (American Type Culture Collection) are then transfected in flasks with the viral DNA using Cellfectin reagent. Determination of small scale protein expression in Sf9 cells: Virus containing media is collected from the transfected cell culture and used for infection to increase its titre. Virus containing media obtained after two rounds of infection is used for large-scale protein expression. For large-scale protein expression 100 cm^2 round tissue culture plates are seeded with 5×10^7 cells/plate and infected with 1 mL of virus-containing media (approx. 5 MOIs). After 3 days the cells are scraped off the plate and centrifuged at 500 rpm for 5 min. Cell pellets from 10-20, 100 cm^2 plates, are resuspended in 50 mL of ice-cold lysis buffer (25 mMTris-HCl, pH 7.5, 2 mM EDTA, 1% NP-40, 1 mM DTT, 1 mM PMSF). The cells are stirred on ice for 15 min and then centrifuged at 5000 rpms for 20 min. […]

The target of the next assay is T2, human Flt-3 (Homo sapiens, UniProt P36888).
T2 construct: expressing the amino acid region amino acids 563-993 of the cytoplasmic kinase domain of human Flt-3; made in house; host or cells: Sf9 (baculovirus)
T2 sequence (P36888 563-993): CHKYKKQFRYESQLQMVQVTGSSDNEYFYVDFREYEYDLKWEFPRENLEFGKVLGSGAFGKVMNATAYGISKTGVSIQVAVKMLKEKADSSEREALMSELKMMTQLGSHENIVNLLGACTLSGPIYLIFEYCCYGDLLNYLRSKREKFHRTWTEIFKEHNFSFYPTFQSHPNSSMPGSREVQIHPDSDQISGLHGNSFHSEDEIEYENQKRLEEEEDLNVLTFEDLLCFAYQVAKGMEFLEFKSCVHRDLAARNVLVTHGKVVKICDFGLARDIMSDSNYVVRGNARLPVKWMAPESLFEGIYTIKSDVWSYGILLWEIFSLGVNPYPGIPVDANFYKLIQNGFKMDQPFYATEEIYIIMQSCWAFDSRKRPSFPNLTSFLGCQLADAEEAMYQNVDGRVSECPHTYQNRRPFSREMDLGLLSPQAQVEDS
The assay is described as follows: Flt3 kinase inhibition, GST-Flt-3, 33P incorporation into poly(Glu,Tyr). It counts as biochemical. To be noted: Table 5; read-out: Flt-3, IC50 class. Here is the method:
as §1

T1 sequence (P35968 20-1356): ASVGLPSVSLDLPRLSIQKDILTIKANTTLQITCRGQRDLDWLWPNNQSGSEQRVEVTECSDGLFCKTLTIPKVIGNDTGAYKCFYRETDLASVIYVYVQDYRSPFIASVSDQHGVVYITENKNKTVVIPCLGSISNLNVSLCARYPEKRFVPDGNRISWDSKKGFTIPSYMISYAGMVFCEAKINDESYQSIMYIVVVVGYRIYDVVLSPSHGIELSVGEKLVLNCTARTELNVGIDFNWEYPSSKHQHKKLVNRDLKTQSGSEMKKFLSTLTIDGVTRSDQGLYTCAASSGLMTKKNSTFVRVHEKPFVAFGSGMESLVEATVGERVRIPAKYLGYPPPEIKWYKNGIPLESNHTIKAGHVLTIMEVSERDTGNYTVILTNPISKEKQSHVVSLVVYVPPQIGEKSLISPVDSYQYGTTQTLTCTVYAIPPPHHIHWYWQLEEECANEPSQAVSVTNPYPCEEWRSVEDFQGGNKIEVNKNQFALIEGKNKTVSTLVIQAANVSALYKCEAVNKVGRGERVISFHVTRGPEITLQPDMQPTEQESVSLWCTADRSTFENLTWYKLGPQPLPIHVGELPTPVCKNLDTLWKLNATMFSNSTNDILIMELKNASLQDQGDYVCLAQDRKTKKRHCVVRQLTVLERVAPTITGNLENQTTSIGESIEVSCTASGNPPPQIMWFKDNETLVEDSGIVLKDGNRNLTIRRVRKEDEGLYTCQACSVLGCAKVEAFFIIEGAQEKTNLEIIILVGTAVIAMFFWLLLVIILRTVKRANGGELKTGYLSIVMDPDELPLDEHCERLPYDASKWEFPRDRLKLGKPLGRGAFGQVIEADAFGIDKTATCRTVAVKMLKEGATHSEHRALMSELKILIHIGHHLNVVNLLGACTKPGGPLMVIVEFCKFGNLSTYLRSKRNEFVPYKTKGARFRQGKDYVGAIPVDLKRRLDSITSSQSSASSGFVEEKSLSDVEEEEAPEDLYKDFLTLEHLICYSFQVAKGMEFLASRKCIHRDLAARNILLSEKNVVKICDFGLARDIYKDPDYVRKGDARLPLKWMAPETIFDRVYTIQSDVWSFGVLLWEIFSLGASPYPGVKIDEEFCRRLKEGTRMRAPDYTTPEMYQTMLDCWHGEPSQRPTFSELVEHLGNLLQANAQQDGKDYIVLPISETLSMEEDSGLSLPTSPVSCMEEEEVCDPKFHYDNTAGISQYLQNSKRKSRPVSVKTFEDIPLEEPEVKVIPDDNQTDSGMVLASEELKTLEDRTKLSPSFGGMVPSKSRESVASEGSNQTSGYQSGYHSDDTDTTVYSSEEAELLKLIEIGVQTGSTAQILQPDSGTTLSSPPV

In the case of `COc1ccc(-c2cnn3c(N)c(-c4cccc(Cl)c4)c(CF)nc23)cc1OC` [Example 92, 6-(3-Chloro-phenyl)-3-(3,4-dimethoxy-phenyl)-5-fluoromethyl-pyrazolo[1,5-a]pyrimidin-7-ylamine], the IC50 in assay [1] is 1 to 10 µM; on human Flt-3, greater than 10 µM.
The like results for `COc1ccc(-c2cnn3c(N)c(-c4cccc(Cl)c4)c(C)nc23)cc1OC` [Example 93, 6-(3-Chloro-phenyl)-3-(3,4-dimethoxy-phenyl)-5-methyl-pyrazolo[1,5-a]pyrimidin-7-ylamine] were, in that order, greater than 10 µM and greater than 10 µM.
For the molecule `COc1ccc(-c2cnn3c(N)c(-c4ccc(F)c(Cl)c4)c(C)nc23)cc1OC` [Example 94, 6-(3-Chloro-4-fluoro-phenyl)-3-(3,4-dimethoxy-phenyl)-5-methyl-pyrazolo[1,5-a]pyrimidin-7-ylamine], the IC50 (in assay [1]; at human Flt-3) was greater than 10 µM throughout.
For `COc1ccc(-c2cnn3c(N)c(-c4ccc(F)c(Cl)c4)c(C)nc23)cc1` [Example 95, 6-(3-Chloro-4-fluoro-phenyl)-3-(4-methoxy-phenyl)-5-methyl-pyrazolo[1,5-a]pyrimidin-7-ylamine], the IC50 (in assay [1]; on human Flt-3) was greater than 10 µM in each case.
For `COc1ccc(-c2cnn3c(N)c(-c4ccc(F)cc4)c(C)nc23)cc1` [Example 96, 6-(4-Fluoro-phenyl)-3-(4-methoxy-phenyl)-5-methyl-pyrazolo[1,5-a]pyrimidin-7-ylamine], the IC50 (in assay [1]; at human Flt-3) was greater than 10 µM throughout.
As for `Cc1nc2c(-c3cccc(N4CCN(CCO)CC4)c3)cnn2c(N)c1-c1ccc(F)cc1` [Example 97, 2-(4-{3-[7-Amino-6-(4-fluoro-phenyl)-5-methyl-pyrazolo[1,5-a]pyrimidin-3-yl]-phenyl}-piperazin-1-yl)-ethanol], the half-maximal inhibitory concentration (IC50) in assay [1] was 1 to 10 µM; on human Flt-3, greater than 10 µM.
With `Cc1nc2c(-c3cccc(N4CCN(C)CC4)c3)cnn2c(N)c1-c1ccc(F)c(F)c1` [Example 98, 6-(3,4-Difluoro-phenyl)-5-methyl-3-[3-(4-methyl-piperazin-1-yl)-phenyl]-pyrazolo[1,5-a]pyrimidin-7-ylamine], the IC50 (in assay [1]; on human Flt-3) was greater than 10 µM in each case.
For the molecule `COc1ccc(-c2cnn3c(N)c(-c4ccc(F)c(F)c4)c(C)nc23)cc1OC` [Example 99, 6-(3,4-Difluoro-phenyl)-3-(3,4-dimethoxy-phenyl)-5-methyl-pyrazolo[1,5-a]pyrimidin-7-ylamine], the IC50 (in assay [1]; on human Flt-3) was greater than 10 µM in each case.
Consider `Cc1nc2c(-c3cccc(N4CCN(CCO)CC4)c3)cnn2c(N)c1-c1ccc(F)c(Cl)c1` [Example 100, 2-(4-{3-[7-Amino-6-(3-chloro-4-fluoro-phenyl)-5-methyl-pyrazolo[1,5-a]pyrimidin-3-yl]-phenyl}-piperazin-1-yl)-ethanol], for which the figures for the IC50 (in assay [1]; on human Flt-3) were 1 to 10 µM and greater than 10 µM, respectively.
Consider `Cc1nc2c(-c3cccc(N4CCN(CCO)CC4)c3)cnn2c(N)c1-c1ccc(F)c(F)c1` [Example 101, 2-(4-{3-[7-Amino-6-(3,4-difluoro-phenyl)-5-methyl-pyrazolo[1,5-a]pyrimidin-3-yl]-phenyl}-piperazin-1-yl)-ethanol], for which the IC50 is 1 to 10 µM in assay [1] and greater than 10 µM at human Flt-3.
As to `Cc1nc2c(-c3cccc(N4CCC(N5CCCC5)CC4)c3)cnn2c(N)c1-c1cccc(Cl)c1` [Example 102, 6-(3-Chloro-phenyl)-5-methyl-3-[3-(4-pyrrolidin-1-yl-piperidin-1-yl)-phenyl]-pyrazolo[1,5-a]pyrimidin-7-ylamine], the half-inhibitory concentration (IC50) (in assay [1]; at human Flt-3) was greater than 10 µM each time.
On to `Cc1nc2c(-c3cccc(N4CCC(N5CCCC5)CC4)c3)cnn2c(N)c1-c1ccc(F)cc1` [Example 103, 6-(4-Fluoro-phenyl)-5-methyl-3-[3-(4-pyrrolidin-1-yl-piperidin-1-yl)-phenyl]-pyrazolo[1,5-a]pyrimidin-7-ylamine], for which the half-maximal inhibitory concentration (IC50) (in assay [1]; at human Flt-3) was greater than 10 µM throughout.
In the case of `Cc1nc2c(-c3cccc(N4CC[N+](C)([O-])CC4)c3)cnn2c(N)c1-c1ccc(F)cc1` [Example 106, 6-(4-Fluoro-phenyl)-5-methyl-3-[3-(4-methyl-4-oxy-piperazin-1-yl)-phenyl]-pyrazolo[1,5-a]pyrimidin-7-ylamine], the half-inhibitory concentration (IC50) (in assay [1]; on human Flt-3) was greater than 10 µM in each case.
As for `Cc1nc2c(-c3cccc([N+]4([O-])CC[N+](C)([O-])CC4)c3)cnn2c(N)c1-c1ccc(F)cc1` (stereo not shown) [Example 107, 6-(4-Fluoro-phenyl)-5-methyl-3-[3-(4-methyl-1,4-dioxy-piperazin-1-yl)-phenyl]-pyrazolo[1,5-a]pyrimidin-7-ylamine], the half-inhibitory concentration (IC50) (in assay [1]; at human Flt-3) was greater than 10 µM each time.

Source of the values: patent US20090099167A1, “Organic compounds” (Novartis Institutes for Biomedical Research, priority 2004, published 2009).
